Measured values published in patent US20200347347A1, “COMPOSITIONS AND METHODS FOR IMPROVED GAMETE VIABILITY AND FUNCTION” (Premium Genetics [UK] Ltd., priority 2017, published 2020).

Experiments:
sperm cells [1] = assay: Outgoing quality control: progressively motile cells per straw after freeze-thaw; format: cell-based, bovine; conditions: NaF 0-6 mM in SVFEM
Method: After 90 minutes of equilibration at 4° C. the samples were cryoprotected by adding TRIS B (which contains glycerol) to a final concentration of 20% v/v of sample in 3 separate additions, 15 minutes apart. The concentration of progressively motile cells was determined using the Hamilton Thorne IVOS II with HTCasa Animal Breeders II software set to the same capture settings listed above, but with a Xenon light source and an Olympus 10× UplanSApo objective. The cryoprotected sample was diluted to final live, motile cell concentration, 2.5 M/mL, in Packaging Extender and placed in Mini Straws which hold 0.25 mL volume (IMV technologies, Maple Grove, Minn. USA) using an MX4 straw filling and sealing machine (IMV technologies, Maple Grove, Minn. USA). Filled straws were rapidly cooled using a freeze tunnel before storage in liquid nitrogen.
Outgoing Quality Control Assessment: To assess the number of motile cells that survived the freezing process a single straw is thawed in a 37° C. water bath for 45 seconds. The straw is then plunged into a pre-warmed Eppendorf tube. The sample is then gently vortexed 10 seconds to homogenize the sample. After which 20 μLs of sample is added to 20 μLs of QC diluent, gently vortexed for 5 seconds, and read on the CASA fluorescent settings described above.

sperm cells [2] = assay: Progressive motility of extended ejaculate stored at 19° C. (CASA); format: cell-based, bovine; conditions: SVFEM supplemented with 3 mM NaF normalized to 0 mM NaF; 24 hours; N=8
Method: Progressive motile % was determined using a CASA system. N=10 paired ejaculates.
Ejaculate extension and Incoming Quality Assessment: The volume of the ejaculate was determined using a serological pipette and evenly divided into two tubes. Immediately, within 15 minutes, the SVFEM extender was added in a 1:1 ratio to the SVFEM extended half of the split ejaculate. […] On arrival, GTLS antibiotic solution was added at a 2% v/v of ejaculate.
Within 45 minutes of initial ejaculate collection, the cell concentration and incoming motility parameters were collected. Concentration was determined using a Nucleocounter SP-100™ with Reagent S100 and SP100 cassettes (ChemoMetec Allerod, Denmark). Motility characteristics were calculated by diluting 10 μL sample in 990 μL motility diluent and reading 7 frames each in 2 chambers of Leja 4 chamber capillary slides with a known chamber depth on a Hamilton Thorne IVOS II using HTCasa II software at 60 Hz frame capture speed in a 37° C. enclosed stage with a Zeiss 1× objective.

sperm cells [3] = assay: Motility of semen samples after 24-hour storage in media (Examples 4-7, 10, 11); format: cell-based, Angus bull; conditions: Example 10; samples stored for 24 hours
Method: Semen sample creation: The media of Example 1 is mixed with semen in a 1:1 volume ratio. Optimal performance is seen when the media was warmed to 37° C. prior to mixing with Angus bull semen, and when the media is added to semen between 10 and 30 minutes post-ejaculation. The media remains effective, however, when mixed with cells 1 hour after ejaculation. After the addition of the media, cells are stored at 19° C. […] In FIG. 33 p=0.017, in a paired t-test. […] Semen samples from Angus bulls (n=4) were taken and tested at the collection, then after storing in the media of Example 1 (SVFEM) for 24 hours. […] Another test was performed to compare samples after 24-hour storage. Semen samples from Angus bulls (n=10) were taken and combined with media. Samples using the inventive media SVFEM were compared to control samples using conventional media. Samples were analyzed to determine whether motility of cells was lost due to storage.

| Compound | number of motile cells which survive a freeze/thaw after 24 hours' extension (sperm cells [1]) | fall of % progressive motile cells after staining below paired SVFEM group (sperm cells [2]) | effect of eliminating the ingredient from SVFEM on motility (sperm cells [3]) |
| --- | --- | --- | --- |
| [F-].[Na+] [NaF, sodium fluoride] | improved efficacy | at least 20% | – |
| phosphatidylserine [PS] | – | – | drop in motility |
